Patent US11076595B2, “1-(n,n-disubstituted carbamoyl) 4-(substituted sulfonyl)triazolin-5-one derivative, 4-(n,n-disubstituted carbamoyl) 1-(substituted sulfonyl)triazolin-5-one derivative, and herbicide containing said derivative as active ingredient” (HOKKO CHEMICAL INDUSTRY CO., LTD., priority 2017, dated 2021)

Legend:
Assay type in all cases: in vivo
Lindernia pyxidaria [1] = experiment: Test Example 1: herbicidal effect test by soil treatment in paddy field; details: 120 g/10a, paddy soil treatment just after sowing, 14 days after treatment
Text: (§1) A Wagner pot having an area of 1/10000 are was filled with paddy field soil and after adding water, a chemical fertilizer (N:P:K=17:17:17) was mixed, followed by puddling. Thereafter, 30 grains of each of Echinochloa crus-galli, broad-leaved weed (Lindernia pyxidaria and Monochoria vaginalis) and Scirpus juncoides seeds were sown to a depth of 0 to 1 cm. Immediately after the sowing, the pot was flooded, and the depth of water was kept at about 3 cm. The pot was subsequently managed in a glass greenhouse. Just after that, an emulsifiable concentrate prepared according to Formulation Example 5 by using the compound shown in Table 5 below was diluted with water, and a predetermined amount of the water-diluted formulation was added dropwise. The application rate of the active ingredient, by conversion, corresponded to 120 g per 10 are.
(§2) This test was performed with two replications per one formulation concentration plot, and 14 days after the formulation treatments, the weed suppression rate (%) was determined according to the following equation (Math. 1). Weed suppression rate (%)=(1−an average dry weight (g) of plants in treated plots/an average dry weight (g) of plants in untreated plots)×100 [Math. 1]

Monochoria vaginalis [2] = experiment: as above; details: 120 g/10a, paddy soil treatment just after sowing, 14 days after treatment
Text: as §1, §2

Echinochloa crus-galli [3] = experiment: as above; details: 120 g/10a, paddy soil treatment just after sowing, 14 days after treatment
Text: as §1, §2

Scirpus juncoides [4] = experiment: as above; details: 120 g/10a, paddy soil treatment just after sowing, 14 days after treatment
Text: as §1, §2

Lindernia pyxidaria [5] = experiment: Test Example 2: herbicidal effect test by treatment during growing period in paddy field; details: treatment 7 days after sowing, 120 g/10a, evaluated 14 days after treatment
Description: as §2
as §1, with “greenhouse. Seven days” for “greenhouse. Just”, “after sowing,” for “after that,”, “Table 6” for “Table 5”, “are. The test was performed with two replications per one formulation concentration plot, and 14 days after the formulation treatments, the weed suppression rate (%) was determined according to the equation (Math. 1).” for “are.”

Monochoria vaginalis [6] = experiment: as above; details: treatment 7 days after sowing, 120 g/10a, evaluated 14 days after treatment
Description: as §2
as §1, with “greenhouse. Seven days” for “greenhouse. Just”, “after sowing,” for “after that,”, “Table 6” for “Table 5”, “are. The test was performed with two replications per one formulation concentration plot, and 14 days after the formulation treatments, the weed suppression rate (%) was determined according to the equation (Math. 1).” for “are.”

Echinochloa crus-galli [7] = experiment: as above; details: treatment 7 days after sowing, 120 g/10a, evaluated 14 days after treatment
Description: as §2
as §1, with “greenhouse. Seven days” for “greenhouse. Just”, “after sowing,” for “after that,”, “Table 6” for “Table 5”, “are. The test was performed with two replications per one formulation concentration plot, and 14 days after the formulation treatments, the weed suppression rate (%) was determined according to the equation (Math. 1).” for “are.”

Scirpus juncoides [8] = experiment: as above; details: treatment 7 days after sowing, 120 g/10a, evaluated 14 days after treatment
Description: as §2
as §1, with “greenhouse. Seven days” for “greenhouse. Just”, “after sowing,” for “after that,”, “Table 6” for “Table 5”, “are. The test was performed with two replications per one formulation concentration plot, and 14 days after the formulation treatments, the weed suppression rate (%) was determined according to the equation (Math. 1).” for “are.”

Amaranthus viridis [9] = experiment: Test Example 14: herbicidal effect test by foliage treatment in upland field; details: 7 days after sowing, 120 g/10a, 14 days after treatment
In short: (§3)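 Dry-weight read-out: suppression (%) = (1 − mean treated dry weight/mean untreated dry weight)×100, at 14 days post-spray, two replicate plots per concentration. Spray applied 7 days after sowing, 120 g a.i. per 10 are.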

Echinochloa crus-galli [10] = experiment: as above; details: 7 days after sowing, 120 g/10a, 14 days after treatment
In short: as §3

Amaranthus viridis [11] = experiment: Test Example 13: herbicidal effect test by soil treatment in upland field; details: 120 g/10a, 14 days after treatment
In short: (§4)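 Weed suppression rate (%) computed at 14 days as 1 minus treated/untreated mean dry weight, times 100, with two replicates per concentration. Emulsifiable concentrate diluted in water was applied at 120 g a.i. per 10 are (100 liter per 10 are) onto soil surface one day post-sowing of 20 seeds each in 36 cm^2 pots of alluvial soil.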

Chenopodium album [12] = experiment: as above; details: 120 g/10a, 14 days after treatment
In short: as §4

Echinochloa crus-galli [13] = experiment: as above; details: 120 g/10a, 14 days after treatment
In short: as §4

crabgrass [14] = experiment: as above; details: 120 g/10a, 14 days after treatment
In short: as §4

Lindernia pyxidaria [15] = experiment: Test Example 11: herbicidal effect test by soil treatment in paddy field; details: 120 g/10a active ingredient, 14 days after treatment
In short: (§5)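 Pre-emergence flooded-paddy test: the water-diluted emulsifiable concentrate, 120 g active ingredient per 10 are, was dripped into pots immediately after seeding, with water held at about 3 cm. Two replicate pots per rate; 14 days after treatment, plant dry weight versus untreated pots gave the weed suppression rate.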

Monochoria vaginalis [16] = experiment: as above; details: 120 g/10a active ingredient, 14 days after treatment
In short: as §5

Echinochloa crus-galli [17] = experiment: as above; details: 120 g/10a active ingredient, 14 days after treatment
In short: as §5

Scirpus juncoides [18] = experiment: as above; details: 120 g/10a active ingredient, 14 days after treatment
In short: as §5

Lindernia pyxidaria [19] = experiment: Test Example 12: herbicidal effect test by treatment during growing period in paddy field; details: 120 g/10a; treatment seven days after sowing in flooded paddy pot; assessed 14 days after treatment
In short: (§6)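 Weed suppression (%) = (1 − treated/untreated mean dry weight) × 100, scored 14 days after treatment with two replicates per plot. Dose 120 g a.i. per 10 are, as diluted emulsifiable concentrate added dropwise to flooded pots (water about 3 cm) 7 days post-sowing, seeds at 0-1 cm.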

Monochoria vaginalis [20] = experiment: as above; details: 120 g/10a; treatment seven days after sowing in flooded paddy pot; assessed 14 days after treatment
In short: as §6

Echinochloa crus-galli [21] = experiment: as above; details: 120 g/10a; treatment seven days after sowing in flooded paddy pot; assessed 14 days after treatment
In short: as §6

Scirpus juncoides [22] = experiment: as above; details: 120 g/10a; treatment seven days after sowing in flooded paddy pot; assessed 14 days after treatment
In short: as §6

Chenopodium album [23] = experiment: Test Example 14: herbicidal effect test by foliage treatment in upland field; details: 7 days after sowing, 120 g/10a, 14 days after treatment
In short: as §3

crabgrass [24] = experiment: as above; details: 7 days after sowing, 120 g/10a, 14 days after treatment
In short: as §3

| SMILES | weed suppression rate, Lindemia pyxidaria (Lindernia pyxidaria [1]) | weed suppression rate, Monochoria vaginalis (Monochoria vaginalis [2]) | weed suppression rate, Echinochloa crus-galli (Echinochloa crus-galli [3]) | weed suppression rate, Scirpus juncoides (Scirpus juncoides [4]) | herbicidal effect, Amaranthus viridis (Amaranthus viridis [9]) | herbicidal effect, Echinochloa crus-galli (Echinochloa crus-galli [10]) | herbicidal effect, Amaranthus viridis (Amaranthus viridis [11]) | herbicidal effect, Chenopodium album (Chenopodium album [12]) | herbicidal effect, Echinochloa crus-galli (Echinochloa crus-galli [13]) | herbicidal effect, Crabgrass (crabgrass [14]) | Weed suppression rate (%) Lindemia pyxidaria (Lindernia pyxidaria [15]) | Weed suppression rate (%) Monochoria vaginalis (Monochoria vaginalis [16]) | Weed suppression rate (%) Echinochloa crus-galli (Echinochloa crus-galli [17]) | Weed suppression rate (%) Scirpus juncoides (Scirpus juncoides [18]) | Weed suppression rate (%) Lindemia pyxidaria (Lindernia pyxidaria [19]) | Weed suppression rate (%) Monochoria vaginalis (Monochoria vaginalis [20]) | Weed suppression rate (%) Echinochloa crus-galli (Echinochloa crus-galli [21]) | Weed suppression rate (%) Scirpus juncoides (Scirpus juncoides [22]) | herbicidal effect, Chenopodium album (Chenopodium album [23]) | herbicidal effect, Crabgrass (crabgrass [24]) | further results |
| --- | --- | --- | --- | --- | --- | --- | --- | --- | --- | --- | --- | --- | --- | --- | --- | --- | --- | --- | --- | --- | --- |
| CC(C)N(C(=O)n1ncn(S(=O)(=O)c2cccs2)c1=O)c1ccc(F)cc1F [Compound 1-1060] | 80% | 80% | 90% | 90% |  |  |  |  |  |  |  |  |  |  |  |  |  |  |  |  |  |
| CC(C)N(C(=O)n1ncn(S(=O)(=O)C(C)C)c1=O)c1ccc(Cl)nc1 [Compound 1-97] | 80% | 90% | 90% | 90% |  |  |  |  |  |  |  |  |  |  |  |  |  |  |  |  | weed suppression rate, Lindemia pyxidaria (Lindernia pyxidaria [5]): 80%; weed suppression rate, Monochoria vaginalis (Monochoria vaginalis [6]): 90%; weed suppression rate, Echinochloa crus-galli (Echinochloa crus-galli [7]): 90%; weed suppression rate, Scirpus juncoides (Scirpus juncoides [8]): 80% |
| CC(C)N(C(=O)n1ncn(S(=O)(=O)C(C)C)c1=O)c1ccccc1F [Compound 1-55] | 90% | 90% | 90% | 90% |  |  |  |  |  |  |  |  |  |  |  |  |  |  |  |  | weed suppression rate, Lindemia pyxidaria (Lindernia pyxidaria [5]): 90%; weed suppression rate, Monochoria vaginalis (Monochoria vaginalis [6]): 90%; weed suppression rate, Echinochloa crus-galli (Echinochloa crus-galli [7]): 90%; weed suppression rate, Scirpus juncoides (Scirpus juncoides [8]): 90% |
| Cc1ccc(N(C(=O)n2ncn(S(=O)(=O)C(C)C)c2=O)C(C)C)c(Cl)c1 [Compound 1-81] | 80% | 80% | 90% | 90% |  |  |  |  |  |  |  |  |  |  |  |  |  |  |  |  | weed suppression rate, Lindemia pyxidaria (Lindernia pyxidaria [5]): 80%; weed suppression rate, Monochoria vaginalis (Monochoria vaginalis [6]): 80%; weed suppression rate, Echinochloa crus-galli (Echinochloa crus-galli [7]): 90%; weed suppression rate, Scirpus juncoides (Scirpus juncoides [8]): 90% |
| CC(C)N(C(=O)n1cnn(S(C)(=O)=O)c1=O)c1ccccc1 [Compound 11-1] |  |  |  |  | 90% | 80% | 90% | 80% | 80% | 90% | 80% | 80% | 90% | 90% | 80% | 80% | 90% | 90% | 80% | 90% |  |
| CC(C)N(C(=O)n1cnn(S(C)(=O)=O)c1=O)c1cccc(F)c1F [Compound 11-11] |  |  |  |  | 60% | 100% | 30% | 30% | 80% | 90% | 100% | 100% | 100% | 100% | 80% | 100% | 100% | 100% | 70% | 100% |  |
| Cc1ccc(N(C(=O)n2cnn(S(=O)(=O)CCl)c2=O)C(C)C)c(F)c1 [Compound 11-123] |  |  |  |  | 90% | 80% | 90% | 80% | 80% | 90% | 80% | 80% | 90% | 90% | 80% | 80% | 90% | 90% | 80% | 90% |  |
| CC(C)N(C(=O)n1cnn(S(=O)(=O)C2CC2)c1=O)c1ccc(Cl)nc1Cl [Compound 11-238] |  |  |  |  | 90% | 80% | 90% | 80% | 80% | 90% | 100% | 80% | 90% | 90% | 80% | 90% | 100% | 90% | 80% | 90% |  |
| CC(C)N(C(=O)n1cnn(S(=O)(=O)C2CC2)c1=O)c1ccccc1 [Compound 11-159] |  |  |  |  | 90% | 80% | 90% | 80% | 80% | 90% | 80% | 80% | 90% | 90% | 70% | 90% | 90% | 80% | 80% | 90% |  |
| Cc1ccc(S(=O)(=O)n2ncn(C(=O)N(c3ccc(F)cc3Cl)C(C)C)c2=O)cc1 [Compound 11-644] |  |  |  |  | 90% | 80% | 90% | 80% | 80% | 90% | 80% | 80% | 90% | 90% | 80% | 80% | 90% | 90% | 80% | 90% |  |
